According to article PMC11200585, “Prospects for Prostate Cancer Chemotherapy: Cytotoxic Evaluation and Mechanistic Insights of Quinolinequinones with ADME/PK Profile” (Biomedicines, 2024):

Columns and labels:
Type in all cases: cell-based, human
A549/ATCC = assay: NCI-60 one-dose screen (non-small cell lung cancer); details: 10 µM single dose, 48 h
Method: (§1) The obtained quinolinequinones were submitted to NCI, Bethesda, USA, and, as per standard protocol of NCI, all compounds were evaluated for their antiproliferative activity at single-dose assay (10 µM concentration in DMSO) on a panel of 60 cancer cell lines derived from leukemia, non-small-cell lung, colon, CNS, melanoma, ovarian, renal, prostate, and breast, as per protocol. Tested compounds were added to the microtiter culture plates followed by incubation for 48 h at 37 °C. Sulforhodamine B (SRB), a protein-binding dye, is used for endpoint determination. The percent of the growth of the treated cells was determined in comparison to the untreated control cells and the results of each tested compound were reported. Data from one-dose experiments pertain to the percentage growth at 10 μM [16, 17, 18].

EKVX = assay: as above; details: 10 µM single dose; for GP (growth percentage): 48 h
Method: as §1

HOP-62 = assay: as above; details: 10 µM single dose; for GP (growth percentage): 48 h
Method: as §1

HOP-92 = assay: as above; details: 10 µM single dose, 48 h
Method: as §1

NCI-H226 = assay: as above; details: 10 µM single dose; for GP (growth percentage): 48 h
Method: as §1

NCI-H23 = assay: as above; details: 10 µM single dose, 48 h
Method: as §1

NCI-H322M [1] = assay: as above; details: 10 µM single dose, 48 h
Method: as §1

NCI-H460 = assay: as above; details: 10 µM single dose; for GP (growth percentage): 48 h
Method: as §1

NCI-H522 = assay: as above; details: 10 µM single dose, 48 h
Method: as §1

SF-268 = assay: NCI-60 one-dose screen (CNS cancer); details: 10 µM single dose, 48 h
Method: as §1

SF-295 = assay: NCI-60 one-dose screen (CNS cancer); details: 10 µM single dose, 48 h
Method: as §1

SF-539 = assay: NCI-60 one-dose screen (CNS cancer); details: 10 µM single dose; for GP (growth percentage): 48 h
Method: as §1

SNB-19 = assay: NCI-60 one-dose screen (CNS cancer); details: 10 µM single dose, 48 h
Method: as §1

SNB-75 = assay: NCI-60 one-dose screen (CNS cancer); details: 10 µM single dose, 48 h
Method: as §1

U251 = assay: NCI-60 one-dose screen (CNS cancer); details: 10 µM single dose, 48 h
Method: as §1

LOX IMVI = assay: NCI-60 one-dose screen (melanoma); details: 10 µM single dose, 48 h
Method: as §1

MALME-3M = assay: NCI-60 one-dose screen (melanoma); details: 10 µM single dose, 48 h
Method: as §1

MDA-MB-435 = assay: NCI-60 one-dose screen (melanoma); details: 10 µM single dose, 48 h
Method: as §1

SK-MEL-28 [2] = assay: NCI-60 one-dose screen (melanoma); details: 10 µM single dose; for GP (growth percentage): 48 h
Method: as §1

SK-MEL-2 = assay: NCI-60 one-dose screen (melanoma); details: 10 µM single dose; for GP (growth percentage): 48 h
Method: as §1

SK-MEL-5 = assay: NCI-60 one-dose screen (melanoma); details: 10 µM single dose, 48 h
Method: as §1

UACC-257 = assay: NCI-60 one-dose screen (melanoma); details: 10 µM single dose, 48 h
Method: as §1

UACC-62 [3] = assay: NCI-60 one-dose screen (melanoma); details: 10 µM single dose, 48 h
Method: as §1

IGROV1 = assay: NCI-60 one-dose screen (ovarian cancer); details: 10 µM single dose, 48 h
Method: as §1

NCI/ADR-RES [4] = assay: NCI-60 one-dose screen (ovarian cancer); details: 10 µM single dose; for GP (growth percentage): 48 h
Method: as §1

OVCAR-4 = assay: NCI-60 one-dose screen (ovarian cancer); details: 10 µM single dose, 48 h
Method: as §1

OVCAR-5 [5] = assay: NCI-60 one-dose screen (ovarian cancer); details: 10 µM single dose; for GP (growth percentage): 48 h
Method: as §1

OVCAR-8 [6] = assay: NCI-60 one-dose screen (ovarian cancer); details: 10 µM single dose; for GP (growth percentage): 48 h
Method: as §1

SK-OV-3 = assay: NCI-60 one-dose screen (ovarian cancer); details: 10 µM single dose, 48 h
Method: as §1

NCI-H322M [7] = assay: NCI-60 five-dose assay (non-small cell lung cancer); details: 48 h, SRB; for GI50 / CC50: Homo sapiens; for CC50: read-out: LC50 (the source's name)
COLO 205 = assay: NCI-60 five-dose assay (colon cancer); details: 48 h, SRB
HCC-2998 = assay: NCI-60 five-dose assay (colon cancer); details: 48 h, SRB; for GI50 / LC50 (concentration killing 50% of cells): Homo sapiens
M14 = assay: NCI-60 five-dose assay (melanoma); details: 48 h, SRB; for GI50 / LC50: Homo sapiens
SK-MEL-28 [8] = assay: NCI-60 five-dose assay (melanoma); details: 48 h, SRB; for GI50 / LC50: Homo sapiens
UACC-62 [9] = assay: NCI-60 five-dose assay (melanoma); details: 48 h, SRB; for GI50 / LC50 (concentration killing 50% of cells): Homo sapiens
OVCAR-3 = assay: NCI-60 five-dose assay (ovarian cancer); details: 48 h, SRB
OVCAR-5 [10] = assay: NCI-60 five-dose assay (ovarian cancer); details: 48 h, SRB; for GI50 / LC50 (lethal concentration 50%): Homo sapiens
OVCAR-8 [11] = assay: NCI-60 five-dose assay (ovarian cancer); details: 48 h, SRB; for GI50 / CC50: Homo sapiens; for CC50: read-out: LC50 (the source's name)
NCI/ADR-RES [12] = assay: NCI-60 five-dose assay (ovarian cancer); details: 48 h, SRB; for GI50 / CC50: Homo sapiens; for CC50: read-out: LC50 (the source's name)
DU-145 = assay: NCI-60 five-dose assay (prostate cancer); details: 48 h, SRB; for GI50 / CC50: Homo sapiens; for CC50: read-out: LC50 (the source's name)
BT-549 = assay: NCI-60 five-dose assay (breast cancer); details: 48 h, SRB; for GI50 / LC50 (concentration giving 50% net cell kill): Homo sapiens
[13] = Homo sapiens, read-out: LC50 (the source's name)

## COc1ccccc1NC1=C(Cl)C(=O)c2nc(C)ccc2C1=O [AQQ1]
A549/ATCC
  GP (growth percentage): 101.36%
EKVX
  GP (growth percentage): 28.52%
EKVX; Homo sapiens
  inhibition at 10 µM: 71.5%
HOP-62
  GP (growth percentage): 74.12%
HOP-92
  GP (growth percentage): −83.81%
NCI-H226
  GP (growth percentage): 29.65%
NCI-H226; Homo sapiens
  inhibition at 10 µM: 70.3%
NCI-H23
  GP (growth percentage): −8.37%
NCI-H322M [1]
  GP (growth percentage): 71.14%
NCI-H460
  GP (growth percentage): 70.83%
NCI-H522
  GP (growth percentage): −48.50%
SF-268
  GP (growth percentage): 47.42%
SF-295
  GP (growth percentage): 96.61%
SF-539
  GP (growth percentage): 1.78%
SF-539; Homo sapiens
  inhibition at 10 µM: 98.2%
SNB-19
  GP (growth percentage): 38.92%
SNB-75
  GP (growth percentage): 105.38%
U251
  GP (growth percentage): 62.79%
LOX IMVI
  GP (growth percentage): −72.99%
MALME-3M
  GP (growth percentage): −55.92%
MDA-MB-435
  GP (growth percentage): −85.96%
SK-MEL-28 [2]
  GP (growth percentage): 14.13%
SK-MEL-28 [2]; Homo sapiens
  inhibition at 10 µM: 85.9%
SK-MEL-2
  GP (growth percentage): 78.82%
SK-MEL-5
  GP (growth percentage): −93.34%
UACC-257
  GP (growth percentage): −82.67%
UACC-62 [3]
  GP (growth percentage): −45.84%
IGROV1
  GP (growth percentage): −83.51%
NCI/ADR-RES [4]
  GP (growth percentage): 7.08%
NCI/ADR-RES [4]; Homo sapiens
  inhibition at 10 µM: 92.9%
OVCAR-4
  GP (growth percentage): −98.22%
OVCAR-5 [5]
  GP (growth percentage): 78.91%
OVCAR-8 [6]
  GP (growth percentage): 9.87%
OVCAR-8 [6]; Homo sapiens
  inhibition at 10 µM: 90.1%
SK-OV-3
  GP (growth percentage): 88.34%
NCI-H322M [7]
  TGI: 7.69 µM
  GI50: 2.5 µM
  CC50: 27.6 µM
COLO 205
  TGI: 3.87 µM
COLO 205; Homo sapiens
  GI50: 1.78 µM
HCC-2998
  TGI: 3.46 µM
  GI50: 1.87 µM
  LC50 (concentration killing 50% of cells): 6.42 µM
M14
  TGI: 3.81 µM
  GI50: 1.82 µM
  LC50: 7.96 µM
SK-MEL-28 [8]
  TGI: 3.34 µM
  GI50: 1.85 µM
  LC50: 6.02 µM
UACC-62 [9]
  TGI: 3.37 µM
  GI50: 1.82 µM
  LC50 (concentration killing 50% of cells): 6.25 µM
OVCAR-3
  TGI: 2.40 µM
OVCAR-3; Homo sapiens
  GI50: 1.12 µM
OVCAR-3; [13]
  CC50: 5.15 µM
OVCAR-5 [10]
  TGI: 3.42 µM
  GI50: 1.86 µM
  LC50 (lethal concentration 50%): 6.29 µM
OVCAR-8 [11]
  TGI: 3.25 µM
  GI50: 1.61 µM
  CC50: 6.59 µM
NCI/ADR-RES [12]
  TGI: 5.16 µM
  GI50: 2.03 µM
  CC50: 34.6 µM
DU-145
  TGI: 3.11 µM
  GI50: 1.72 µM
  CC50: 5.62 µM
BT-549
  TGI: 3.27 µM
  GI50: 1.72 µM
  LC50 (concentration giving 50% net cell kill): 6.19 µM

## COc1cc(NC2=C(Cl)C(=O)c3nc(C)ccc3C2=O)cc(OC)c1 [AQQ5]
A549/ATCC
  GP (growth percentage): 42.41%
EKVX
  GP (growth percentage): 74.66%
HOP-62
  GP (growth percentage): 0.85%
HOP-62; Homo sapiens
  inhibition at 10 µM: 99.2%
HOP-92
  GP (growth percentage): −12.23%
NCI-H226
  GP (growth percentage): 68.59%
NCI-H23
  GP (growth percentage): −55.61%
NCI-H322M [1]
  GP (growth percentage): 89.75%
NCI-H460
  GP (growth percentage): 2.02%
NCI-H460; Homo sapiens
  inhibition at 10 µM: 98%
NCI-H522
  GP (growth percentage): −80.61%
SF-268
  GP (growth percentage): 37.00%
SF-295
  GP (growth percentage): 51.57%
SF-539
  GP (growth percentage): −30.92%
SNB-19
  GP (growth percentage): 30.42%
SNB-75
  GP (growth percentage): −4.09%
U251
  GP (growth percentage): 36.76%
LOX IMVI
  GP (growth percentage): −82.62%
MALME-3M
  GP (growth percentage): −89.37%
MDA-MB-435
  GP (growth percentage): −87.43%
SK-MEL-28 [2]
  GP (growth percentage): −73.06%
SK-MEL-2
  GP (growth percentage): 5.03%
SK-MEL-2; Homo sapiens
  inhibition at 10 µM: 95%
SK-MEL-5
  GP (growth percentage): −74.93%
UACC-257
  GP (growth percentage): −92.05%
UACC-62 [3]
  GP (growth percentage): −43.56%
IGROV1
  GP (growth percentage): −23.13%
NCI/ADR-RES [4]
  GP (growth percentage): −1.26%
OVCAR-4
  GP (growth percentage): −93.28%
OVCAR-5 [5]
  GP (growth percentage): 22.00%
OVCAR-5 [5]; Homo sapiens
  inhibition at 10 µM: 78%
OVCAR-8 [6]
  GP (growth percentage): −0.82%
SK-OV-3
  GP (growth percentage): 93.82%
NCI-H322M [7]
  TGI: 12.8 µM
  GI50: 3.42 µM
  CC50: 35.8 µM
COLO 205
  TGI: 3.08 µM
COLO 205; Homo sapiens
  GI50: 1.68 µM
COLO 205; [13]
  CC50: 5.63 µM
HCC-2998
  TGI: 3.26 µM
  GI50: 1.81 µM
  LC50 (concentration killing 50% of cells): 5.88 µM
M14
  TGI: 3.09 µM
  GI50: 1.69 µM
  LC50: 5.66 µM
SK-MEL-28 [8]
  TGI: 3.23 µM
  GI50: 1.79 µM
  LC50: 5.85 µM
UACC-62 [9]
  TGI: 3.42 µM
  GI50: 1.77 µM
  LC50 (concentration killing 50% of cells): 6.6 µM
OVCAR-5 [10]
  TGI: 5.79 µM
  GI50: 2.38 µM
  LC50 (lethal concentration 50%): 23.7 µM
OVCAR-8 [11]
  TGI: 3.28 µM
  GI50: 1.64 µM
  CC50: 6.56 µM
NCI/ADR-RES [12]
  TGI: 4.47 µM
  GI50: 1.81 µM
  CC50: 21.7 µM
DU-145
  TGI: 3.55 µM
  GI50: 1.84 µM
  CC50: 6.83 µM
BT-549
  TGI: 3.40 µM
  GI50: 1.97 µM
  LC50 (concentration giving 50% net cell kill): 5.87 µM
